Measured values from patent publication US4221789A, “Lactam-N-acetic acids and their amides” (UCB, Societe Anonyme, priority 1978, dated 1980).
Counter-ions that a name gives are not always drawn. Like-named read-outs stand apart in the source and are kept apart here.

Assays:
rat [1] = experiment: active avoidance test (memory retention; paw withdrawal threshold); type: in vivo; conditions: for minimal effective dose: sc, read-out: Active dose
Text: (A) The action on mnemic processes is first shown by the ability of the compounds to improve a type of memory retention in the rat. The principle of the active avoidance test (see M. GREINDL and S. PREAT, Arch.Int. Pharmacodyn.Therap.223,(1976),(1),168-171) developed in our laboratories and used for this purpose, may be described as follows: the withdrawal reaction of a rat's paw when subjected to an increasing, quantified pressure is observed. The pressure at which the withdrawal reaction is produced, is called the reaction threshold. This threshold is expressed by the number of graduations of the scale of the apparatus used (Analgesymeter Ugo Basile, Milan) and thus corresponds to the minimum pressure which brings about withdrawal when applied to the animal's paw. It is read off directly on the scale of the apparatus used.
Inversely, animals treated with a substance having a positive effect on the mnemic processes (such as piracetam) show a significant degree of retention: the stimulus to which the rats react by a reflex of avoidance is statistically lower than that of the control animals. A minimum of 20 rats per test are used (10 treated rats and 10 control rats) and the active dose is defined as the minimum dose lowering the stimulus to below 11 graduations.

rat [2] = experiment: reduction of the spinal fixation time; type: in vivo; conditions: for minimal effective dose: ip, 35 min, read-out: Active dose
Text: (B) The action on the mnemic processes is also shown by the reduction of the spinal fixation time, a test which has been described in literature (see C. GIURGEA and F. MOURAVIEFF-LESUISSE, Arch.Int.Pharmacodyn.191,(1971,No. 2), 279) as an elementary model of memory and which provides pharmacological reactivity in good correlation with clinical physiopathology. In the rat, after unilateral lesion of the cerebellum, there is a postural asymmetry of the hind paws. This asymmetry may-persist, even after spinal section, if the animal has passed a sufficient period of time in this position. This time, which is called the spinal fixation time, is 45 minutes under the experimental conditions applied here.
On the other hand, if spinal section is performed before the expiry of this period of time, for example 35 minutes after the onset of asymmetry, the latter disappears.
Inversely, any product which allows the rats to retain the asymmetry (thus effecting spinal fixation), when the spinal section is performed after 35 minutes, is considered to be active.
By "number of animals" is to be understood the number of animals which responded positively to the test in relation to the number of animals tested at the dose indicated: […]

mice = experiment: toxicity in mice, intraperitoneal (Irwin's test); type: in vivo
Text: The compounds of formula I have a remarkably low toxicity.
*Dose which brings about the death of one animal out of three in Irwin's
test (S. IRWIN, Gordon Research Conference on Medicinal Chemistry, Colby
Junior College, New London, 1959).

[3] = toxicity in the rat, intravenous or oral (LD 50); conditions: in vivo
Text: Furthermore, when administered intravenously (i.v.) or orally in the rat, the compounds also have a low toxicity, as indicated in the following Table: […]

[4] = system: papillary muscle isolated from the cat's heart; experiment: "papillary muscle" test (inotropic activity); conditions: for activation at 10 µg/kg, 0.01 mg/kg: Felis catus, read-out: increase of the strength of muscular contraction
Procedure: The method used is that of M. K. CATTELL and H. GOLD (J.Pharmacol.Exptl. Therap.62, (1938), 116-125). The experiment is carried out on a papillary muscle isolated from the cat's heart and dipped in a physiological salt solution to which the compound to be tested is added.

[5] = rat, intraperitoneal, spinal section after 35 minutes
[6] = rat, intraperitoneal, 0.2 mmol/kg, spinal section after 35 minutes
[7] = rat, subcutaneous, minimum dose lowering the stimulus to below 11 graduations, tested 24 hours later
[8] = rat, intraperitoneal, 0.1 mmol/kg, spinal section after 35 minutes

Compound | minimal effective dose (rat [1]; Rattus norvegicus, 24 h) [µmol/kg] | Dose which brings about the death of one animal out of three in Irwin's test (mice; mouse, in vivo, ip) [mg/kg] | Dose which brings about the death of one animal out of three in Irwin's test (mice; mice, intraperitoneal) [mg/kg] | further results
NC(=O)CN1CCCC1=O [Compound A, 2-oxo-1-pyrrolidineacetamide, reference compound] | 25 |  |  | minimal effective dose (rat [2]; [5]): 200 µmol/kg; Number of animals which responded positively / number tested (rat [2]; [6]): 4/9
CCC(C(N)=O)N1CCCC1=O (stereo not drawn) [Compound B, alpha-ethyl-2-oxo-1-pyrrolidineacetamide, reference compound] | 5 |  |  | minimal effective dose (rat [2]; [5]): 200 µmol/kg; Number of animals which responded positively / number tested (rat [2]; [6]): 7/22
O=C(O)CN1CCCC1=O [Compound C, 2-oxo-1-pyrrolidineacetic acid, reference compound] |  |  |  | activity in the active avoidance test (rat [1]; rat, subcutaneous, at the dose of 0.1 mmol/kg): inactive; minimal effective dose (rat [2]; [5]): 320 µmol/kg; Number of animals which responded positively / number tested (rat [2]; rat, intraperitoneal, 0.32 mmol/kg, spinal section after 35 minutes): 2/4
O=C(O)C(O)N1CCCC1=O (stereo not drawn) [Example 2, alpha-Hydroxy-2-oxo-1-pyrrolidineacetic acid (dicyclohexylamine salt)] |  | > 102 |  | minimal effective dose (rat [1]; [7]): 5 µmol/kg; minimal effective dose (rat [2]; [5]): 100 µmol/kg; Number of animals which responded positively / number tested (rat [2]; [8]): 4/7
O=C(O)C(CCO)N1CCCC1=O (stereo not drawn) [Example 3, alpha-(2-Hydroxyethyl)-2-oxo-1-pyrrolidineacetic acid] |  | > 1222 |  | minimal effective dose (rat [2]; [5]): 100 µmol/kg; Number of animals which responded positively / number tested (rat [2]; [8]): 4/7
NC(=O)C(CCO)N1CCCC1=O (stereo not drawn) [Example 4.1, alpha-(2-Hydroxyethyl)-2-oxo-1-pyrrolidineacetamide] | 2 |  | > 1116 | LD50 ([3]; iv): > 4000 mg/kg; LD50 ([3]; po, orally): > 10000 mg/kg; activation at 10 µg/kg, 0.01 mg/kg [4]: 7%; inotropic activity ([4]; isolated cat papillary muscle, comparison with caffeine): superior to that of caffeine; minimal effective dose (rat [2]; Rattus norvegicus): 100 µmol/kg; Number of animals which responded positively / number tested (rat [2]; [8]): 3/7
CC1CCN(C(CCO)C(N)=O)C1=O (stereo not drawn) [Example 4.2, alpha-(2-Hydroxyethyl)-3-methyl-2-oxo-1-pyrrolidineacetamide] |  |  | > 1200 | 
CC1CC(C)N(C(CCO)C(N)=O)C1=O (stereo not drawn) [Example 4.3, alpha-(2-Hydroxyethyl)-3,5-dimethyl-2-oxo-1-pyrrolidineacetamide] |  |  | > 1286 | 
CCCCC1CCN(C(CCO)C(N)=O)C1=O (stereo not drawn) [Example 4.4, 3-n-Butyl-alpha-(2-hydroxyethyl)-2-oxo-1-pyrrolidineacetamide] |  | > 1452 |  | 
NC(=O)C(CCO)N1CC(c2ccc(Cl)cc2)C(c2ccccc2)C1=O (stereo not drawn) [Example 4.5, 4-p-Chlorophenyl-alpha-(2-hydroxyethyl)-3-phenyl-2-oxo-1-pyrrolidineacetamide] |  | > 224 |  | 
CCCCNC(=O)C(CCO)N1CCCC1=O (stereo not drawn) [Example 5.1, N-n-Butyl-alpha-(2-hydroxyethyl)-2-oxo-1-pyrrolidineacetamide] |  |  | > 1452 | 
O=C(NC1CCCCC1)C(CCO)N1CCCC1=O (stereo not drawn) [Example 5.2, N-Cyclohexyl-alpha-(2-hydroxyethyl)-2-oxo-1-pyrrolidineacetamide] |  | > 1608 |  | 
CCN(CC)C(=O)C(CCO)N1CCCC1=O (stereo not drawn) [Example 5.3, N,N-Diethyl-alpha-(2-hydroxyethyl)-2-oxo-1-pyrrolidineacetamide] | 0.2 |  | > 1452 | 
CC(C)NC(=O)C(CCO)N1CCCC1=O (stereo not drawn) [Example 5.4, alpha-(2-Hydroxyethyl)-N-isopropyl-2-oxo-1-pyrrolidineacetamide] |  |  | > 1368 | 
O=C(C(CCO)N1CCCC1=O)N1CCOCC1 (centres unmarked) [Example 6.1, 4-[4-Hydroxy-2-(2-oxo-1-pyrrolidinyl)butyryl]-morpholine] | 0.2 |  | > 1536 | 
O=C(C(CCO)N1CCCC1=O)N1CCCCC1 (centres unmarked) [Example 6.2, 1-[4-Hydroxy-2-(2-oxo-1-pyrrolidinyl)butyryl]-piperidine] |  |  | > 1524 | 
CCCNC(=O)C(CCO)N1CCCC1=O (stereo not drawn) [Example 6.3, alpha-(2-Hydroxyethyl)-N-propyl-2-oxo-1-pyrrolidineacetamide] | 0.1 |  | > 1368 | 
O=C(C(CCO)N1CCCC1=O)N1CCN(Cc2ccccc2)CC1 (centres unmarked) [Example 6.4, 1-Benzyl-4-[4-hydroxy-2-(2-oxo-1-pyrrolidinyl)butyryl]-piperazine] |  | > 345 |  | minimal effective dose (rat [1]; [7]): 1 µmol/kg
O=C(NC1CCCC1)C(CCO)N1CCCC1=O (stereo not drawn) [Example 6.5, N-cyclopentyl-alpha-(2-hydroxyethyl)-2-oxo-1-pyrrolidineacetamide] |  | > 762 |  | minimal effective dose (rat [1]; [7]): 0.2 µmol/kg
O=C(NCc1ccccc1)C(CCO)N1CCCC1=O (stereo not drawn) [Example 6.6, N-Benzyl-alpha-(2-hydroxyethyl)-2-oxo-1-pyrrolidineacetamide] | 2 |  | 822 | minimal effective dose (rat [2]; Rattus norvegicus): 100 µmol/kg; Number of animals which responded positively / number tested (rat [2]; [8]): 3/7
Cn1c(=O)c2c(ncn2C)n(C)c1=O [caffeine, reference compound] |  |  |  | activation at 10 µg/kg, 0.01 mg/kg ([4]; isolated cat papillary muscle, at the dose of 10 μg/kg): 4%
